Laboratory results from ChEMBL document CHEMBL5096202, “Carbon-silicon switch led to the discovery of novel synthetic cannabinoids with therapeutic effects in a mouse model of multiple sclerosis” (Eur J Med Chem, 2021).
Activity calls are given as the source filed them. The rule behind the calls is not given here.

Assays:
Cannabinoid receptor 2 [1] = target: T1, Cannabinoid receptor 2 (Homo sapiens, UniProt P34972); assay: Agonist activity at recombinant human CB2 receptor expressed in CHO cells assessed as inhibition of forskolin-induced cAMP accumulation by measuring maximum efficacy preincubated for 15 mins followed by forskolin stimulation and measured after 15 mins by HTRF assay relative to control; type: functional, cell-based; details: filed as agonist, time 30.0 min
Cannabinoid receptor 1 [2] = target: T2, Cannabinoid receptor 1 (Homo sapiens, UniProt P21554); assay: Displacement of [3H]-CP55940 from recombinant human CB1 receptor expressed in CHO cells assessed as inhibition constant incubated for 120 mins by radioligand binding assay; type: cell-based
Cannabinoid receptor 2 [3] = target: T1, Cannabinoid receptor 2; assay: Displacement of [3H]-CP55940 from recombinant human CB2 receptor expressed in CHO cells assessed as inhibition constant incubated for 120 mins by radioligand binding assay; type: cell-based
Cannabinoid receptor 2 [4] = target: T1, Cannabinoid receptor 2; assay: Agonist activity at recombinant human CB2 receptor expressed in CHO cells assessed as inhibition of forskolin-induced cAMP accumulation preincubated for 15 mins followed by forskolin stimulation and measured after 15 mins by HTRF assay; type: functional, cell-based
[5] = Metabolic stability in human liver microsomes assessed as half life; type: ADME, Microsome
[6] = Metabolic stability in rat liver microsomes assessed as half life; type: ADME, Microsome
[7] = Metabolic stability in mouse liver microsomes assessed as half life; type: ADME, Microsome
[8] = Metabolic stability in human liver microsomes assessed as intrinsic clearance; type: ADME, Microsome; details: read-out: CLH
[9] = Metabolic stability in rat liver microsomes assessed as intrinsic clearance; type: ADME, Microsome; details: read-out: CLH
[10] = Metabolic stability in mouse liver microsomes assessed as intrinsic clearance; type: ADME, Microsome; details: read-out: CLH
[11] = Half life in C57BL/6 mouse at 10 mg/kg, ip measured upto 24 hrs by LC-MS/MS analysis; type: ADME, organism-based; details: in vivo
[12] = Tmax in C57BL/6 mouse at 10 mg/kg, ip measured upto 24 hrs by LC-MS/MS analysis; type: ADME, organism-based; details: in vivo
[13] = Cmax in C57BL/6 mouse at 10 mg/kg, ip measured upto 24 hrs by LC-MS/MS analysis; type: ADME, organism-based; design: dose 10 mg/kg, time < 24 hrs, route ip; details: in vivo
[14] = AUClast in C57BL/6 mouse at 10 mg/kg, ip measured upto 24 hrs by LC-MS/MS analysis; type: ADME, organism-based; design: time < 24 hrs, dose 10 mg/kg, route ip; details: in vivo
[15] = AUCinfinity in C57BL/6 mouse at 10 mg/kg, ip measured upto 24 hrs by LC/MS-MS analysis; type: ADME, organism-based; design: dose 10 mg/kg, time < 24 hrs, route ip; details: in vivo
Mus musculus [16] = assay: Antiinflammatory activity in MOG (35 to 55 residues)/pertussis toxin-induced experimental autoimmune encephalomyelitis C57BL/6 mouse model assessed as reduction in clinical score administered intraperitoneally starting from day 3 to day 28; type: functional, organism-based; details: route ip, time 25.0 day, DDE = dose-dependent effect
[17] = Toxicity in MOG (35 to 55 residues)/pertussis toxin-induced experimental autoimmune encephalomyelitis C57BL/6 mouse model assessed as body weight loss at 10 to 30 mg/kg, ip administered starting from day 3 to day 28; type: organism-based; details: in vivo, 600 h, dose 10-30 mg/kg, time 25 day
[18] = Toxicity in MOG (35 to 55 residues)/pertussis toxin-induced experimental autoimmune encephalomyelitis C57BL/6 mouse model assessed as motor defects at 30 mg/kg, ip administered once daily starting from day 3 to day 28; type: organism-based; details: in vivo, 600 h, time 25 day
[19] = Toxicity in MOG (35 to 55 residues)/pertussis toxin-induced experimental autoimmune encephalomyelitis C57BL/6 mouse model assessed as tolerance at 30 mg/kg, ip administered once daily starting from day 3 to day 28; type: organism-based; details: in vivo, 600 h, time 25 day
Mus musculus [20] = assay: Antiinflammatory activity in MOG (35 to 55 residues)/pertussis toxin-induced experimental autoimmune encephalomyelitis C57BL/6 mouse model assessed as reduction of inflammatory cell infiltration in transverse section of lumbar spinal cords at 10 to 30 mg/kg, ip administered starting from day 3 to day 28 by H&E staining based analysis; type: functional, organism-based; details: dose 10-30 mg/kg, time 25.0 day
Mus musculus [21] = assay: Antiinflammatory activity in MOG (35 to 55 residues)/pertussis toxin-induced experimental autoimmune encephalomyelitis C57BL/6 mouse model assessed as reduction in demyelination in transverse section of lumbar spinal cords at 10 to 30 mg/kg, ip administered starting from day 3 to day 28 by H&E staining based analysis; type: functional, organism-based; details: dose 10-30 mg/kg, time 25.0 day
Mus musculus [22] = assay: Antiinflammatory activity in MOG (35 to 55 residues)/pertussis toxin-induced experimental autoimmune encephalomyelitis C57BL/6 mouse model assessed as reduction of inflammatory cell infiltration in transverse section of lumbar spinal cords at 10 to 30 mg/kg, ip administered starting from day 3 to day 28 by LFB staining based analysis; type: functional, organism-based; details: dose 10-30 mg/kg, time 25.0 day
Mus musculus [23] = assay: Antiinflammatory activity in MOG (35 to 55 residues)/pertussis toxin-induced experimental autoimmune encephalomyelitis C57BL/6 mouse model assessed as reduction in demyelination in transverse section of lumbar spinal cords at 10 to 30 mg/kg, ip administered starting from day 3 to day 28 by LFB staining based analysis; type: functional, organism-based; details: dose 10-30 mg/kg, time 25.0 day
Mus musculus [24] = assay: Antiinflammatory activity in MOG (35 to 55 residues)/pertussis toxin-induced experimental autoimmune encephalomyelitis C57BL/6 mouse model assessed as reduction in infarcted brain proportion at 10 to 30 mg/kg, ip administered starting from day 3 to day 28 by TTC staining based analysis relative to control; type: functional; design: scale not given: the % may be the effect or the level left; details: dose 10-30 mg/kg, time 25 day
[25] = Toxicity in MOG (35 to 55 residues)/pertussis toxin-induced experimental autoimmune encephalomyelitis C57BL/6 mouse model assessed as side effects at 10 to 30 mg/kg, ip administered once daily starting from day 3 to day 28; type: organism-based; details: in vivo, 600 h, dose 10-30 mg/kg, time 25 day
Cannabinoid receptor 1 [26] = target: T2, Cannabinoid receptor 1; assay: Agonist activity at recombinant human CB1 receptor expressed in CHO cells assessed as inhibition of forskolin-induced cAMP accumulation preincubated for 15 mins followed by forskolin stimulation and measured after 15 mins by HTRF assay; type: functional, cell-based
Cannabinoid receptor 1 [27] = target: T2, Cannabinoid receptor 1; assay: Agonist activity at recombinant human CB1 receptor expressed in CHO cells assessed as inhibition of forskolin-induced cAMP accumulation by measuring maximum efficacy preincubated for 15 mins followed by forskolin stimulation and measured after 15 mins by HTRF assay relative to control; type: functional, cell-based; details: filed as agonist, time 30.0 min
[28] = Toxicity in MOG (35 to 55 residues)/pertussis toxin-induced experimental autoimmune encephalomyelitis C57BL/6 mouse model assessed as body weight loss at 5 to 10 mg/kg, ip administered starting from day 3 to day 28; type: organism-based; details: in vivo, 600 h, dose 5-10 mg/kg, time 25 day
Mus musculus [29] = assay: Antiinflammatory activity in MOG (35 to 55 residues)/pertussis toxin-induced experimental autoimmune encephalomyelitis C57BL/6 mouse model assessed as reduction of inflammatory cell infiltration in transverse section of lumbar spinal cords at 5 to 10 mg/kg, ip administered starting from day 3 to day 28 by H&E staining based analysis; type: functional, organism-based; details: dose 5-10 mg/kg, time 25.0 day
Mus musculus [30] = assay: Antiinflammatory activity in MOG (35 to 55 residues)/pertussis toxin-induced experimental autoimmune encephalomyelitis C57BL/6 mouse model assessed as reduction in demyelination in transverse section of lumbar spinal cords at 5 to 10 mg/kg, ip administered starting from day 3 to day 28 by H&E staining based analysis; type: functional, organism-based; details: dose 5-10 mg/kg, time 25.0 day
Mus musculus [31] = assay: Antiinflammatory activity in MOG (35 to 55 residues)/pertussis toxin-induced experimental autoimmune encephalomyelitis C57BL/6 mouse model assessed as reduction of inflammatory cell infiltration in transverse section of lumbar spinal cords at 5 to 10 mg/kg, ip administered starting from day 3 to day 28 by LFB staining based analysis; type: functional, organism-based; details: dose 5-10 mg/kg, time 25.0 day
Mus musculus [32] = assay: Antiinflammatory activity in MOG (35 to 55 residues)/pertussis toxin-induced experimental autoimmune encephalomyelitis C57BL/6 mouse model assessed as reduction in demyelination in transverse section of lumbar spinal cords at 5 to 10 mg/kg, ip administered starting from day 3 to day 28 by LFB staining based analysis; type: functional, organism-based; details: dose 5-10 mg/kg, time 25.0 day
Mus musculus [33] = assay: Antiinflammatory activity in MOG (35 to 55 residues)/pertussis toxin-induced experimental autoimmune encephalomyelitis C57BL/6 mouse model assessed as reduction in infarcted brain proportion at 5 to 10 mg/kg, ip administered starting from day 3 to day 28 by TTC staining based analysis relative to control; type: functional; design: scale not given: the % may be the effect or the level left; details: dose 5-10 mg/kg, time 25 day
[34] = Toxicity in MOG (35 to 55 residues)/pertussis toxin-induced experimental autoimmune encephalomyelitis C57BL/6 mouse model assessed as behavioral changes at 10 mg/kg, ip administered once daily starting from day 3 to day 28; type: organism-based; details: in vivo, 600 h, time 25 day

T1 sequence (P34972 whole entry): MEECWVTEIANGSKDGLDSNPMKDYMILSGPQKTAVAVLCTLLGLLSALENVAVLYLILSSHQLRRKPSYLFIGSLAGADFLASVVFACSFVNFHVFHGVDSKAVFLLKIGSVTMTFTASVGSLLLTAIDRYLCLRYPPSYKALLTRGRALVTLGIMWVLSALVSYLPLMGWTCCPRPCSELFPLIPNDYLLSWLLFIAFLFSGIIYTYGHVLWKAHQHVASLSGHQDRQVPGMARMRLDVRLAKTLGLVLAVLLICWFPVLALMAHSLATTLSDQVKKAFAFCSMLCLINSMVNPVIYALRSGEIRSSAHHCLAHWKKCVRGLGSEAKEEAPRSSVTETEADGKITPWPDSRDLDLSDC
T2 sequence (P21554 whole entry): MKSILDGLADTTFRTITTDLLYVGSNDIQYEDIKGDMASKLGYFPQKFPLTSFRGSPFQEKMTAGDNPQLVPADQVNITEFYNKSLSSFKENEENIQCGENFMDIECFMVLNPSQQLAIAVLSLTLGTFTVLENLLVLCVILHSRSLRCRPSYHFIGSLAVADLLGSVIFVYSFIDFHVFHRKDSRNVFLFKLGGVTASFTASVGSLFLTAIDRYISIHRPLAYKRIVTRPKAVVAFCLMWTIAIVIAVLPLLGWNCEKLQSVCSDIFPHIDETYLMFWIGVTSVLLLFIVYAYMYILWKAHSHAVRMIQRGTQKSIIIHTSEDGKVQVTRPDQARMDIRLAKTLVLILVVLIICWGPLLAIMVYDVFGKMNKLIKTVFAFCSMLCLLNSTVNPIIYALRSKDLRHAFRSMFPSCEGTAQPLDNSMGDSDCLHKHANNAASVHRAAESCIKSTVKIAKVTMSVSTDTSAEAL

| SMILES | Emax (Cannabinoid receptor 2 [1]) [%] | Ki (Cannabinoid receptor 1 [2]) [nM] | Ki (Cannabinoid receptor 2 [3]) [nM] | EC50 (Cannabinoid receptor 2 [4]) [nM] | half-life [5] [min] | half-life [6] [min] | half-life [7] [min] | CLint scaled [8] [mL/min/kg] | CLint scaled [9] [mL/min/kg] | CLint scaled [10] [mL/min/kg] | half-life [11] [min] | Tmax [12] [min] | Cmax [13] [ng/mL] | AUC(0-t) at 24 h [14] [ng·h/mL] | AUC(0-inf) [15] [ng·h/mL] | Activity (Mus musculus [16]) | also measured |
| --- | --- | --- | --- | --- | --- | --- | --- | --- | --- | --- | --- | --- | --- | --- | --- | --- | --- |
| CCCCCC[Si](C)(C)c1cc(OC)c([C@H]2C=C(CO)[C@H]3C[C@@H]2C3(C)C)c(OC)c1 | 90.6 | 2890 | 4930 | 460 | 49.7 | 58.9 | 31.5 | 35 | 42.1 | 173 | 407 | 120 | 2520 | 11600 | 12300 | Dde | Activity [17]: Non-Toxic; Activity [18]: Non-Toxic; Activity [19]: Non-Toxic; Activity (Mus musculus [20]): Active; Activity (Mus musculus [21]): Active; Activity (Mus musculus [22]): Active; Activity (Mus musculus [23]): Active; Activity (Mus musculus [24]): 90%; Activity [25]: Non-Toxic |
| C=C(C)[C@@H]1CCC(C)=C[C@H]1c1c(O)cc([Si](C)(C)CCCCCC)cc1O | 75.6 | 1.56 | 4.66 | 149 | 31.5 | 19.4 | 17.1 | 55.2 | 318 | 128 | 314 | 120 | 1510 | 6630 | 6840 | Dde | EC50 (Cannabinoid receptor 1 [26]): 219 nM; Emax (Cannabinoid receptor 1 [27]): 95.9%; Activity [28]: Non-Toxic; Activity (Mus musculus [29]): Active; Activity (Mus musculus [30]): Active; Activity (Mus musculus [31]): Active; Activity (Mus musculus [32]): Active; Activity (Mus musculus [33]): 50%; Activity [34]: Toxic |
